Converted amounts (≈) assume the structure as drawn.
Assays:
Type in all cases: functional
[1] = Cytotoxicity against human 9KB cells
[2] = system: P388; assay: In vivo cytotoxicity against mouse P388 cells at 75 mg/kg relative to control
[3] = system: Staphylococcus aureus; assay: Antibacterial activity against Staphylococcus aureus NCTC 6571 after overnight incubation by tube dilution method
[4] = Cytotoxicity against mouse 9PS cells

Compound: C=C1C(=O)O[C@@H]2C[C@@]3(C)C[C@@H](O)C[C@H](C)C3=C[C@H]12
- Activity [1]: 2 ×10⁻¹ ug/ml
- T/C [2]: 123%
- MIC [3]: 0.625 µg/mL (≈ 2.52 µM)
- Activity [4]: 2 µg/mL
